Results: patent publication US8853203B2, “Diazepinone derivatives” (Novartis AG, priority 2012, dated 2014)

Columns and labels:
human mGluR5a receptors = human mGluR5a receptors (Homo sapiens (Human), UniProt P41594); test: inhibition of glutamate-induced elevation of intracellular calcium in L(tk-) cells expressing human mGluR5a; format: cell-based; conditions: glutamate-induced intracellular calcium elevation, L(tk-) cells expressing human mGluR5a; read-out: mGluR5 IC50
Outline: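 Compounds tested for inhibition of the glutamate-induced rise in intracellular calcium concentration in L(tk-) cells stably expressing human mGluR5a.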

human mGluR1 = human mGluR1 (Homo sapiens (Human), UniProt Q13255); test: mGluR1 antagonism, L-glutamate induced intracellular calcium increase (FLIPR) in CHO cells stably expressing human mGluR1; format: cell-based; conditions: for IC50: L-glutamate induced intracellular calcium, CHO cells expressing human mGluR1, FLIPR; for inhibition at 10 µM: CHO
human mGluR1, sequence (Q13255 19-1194): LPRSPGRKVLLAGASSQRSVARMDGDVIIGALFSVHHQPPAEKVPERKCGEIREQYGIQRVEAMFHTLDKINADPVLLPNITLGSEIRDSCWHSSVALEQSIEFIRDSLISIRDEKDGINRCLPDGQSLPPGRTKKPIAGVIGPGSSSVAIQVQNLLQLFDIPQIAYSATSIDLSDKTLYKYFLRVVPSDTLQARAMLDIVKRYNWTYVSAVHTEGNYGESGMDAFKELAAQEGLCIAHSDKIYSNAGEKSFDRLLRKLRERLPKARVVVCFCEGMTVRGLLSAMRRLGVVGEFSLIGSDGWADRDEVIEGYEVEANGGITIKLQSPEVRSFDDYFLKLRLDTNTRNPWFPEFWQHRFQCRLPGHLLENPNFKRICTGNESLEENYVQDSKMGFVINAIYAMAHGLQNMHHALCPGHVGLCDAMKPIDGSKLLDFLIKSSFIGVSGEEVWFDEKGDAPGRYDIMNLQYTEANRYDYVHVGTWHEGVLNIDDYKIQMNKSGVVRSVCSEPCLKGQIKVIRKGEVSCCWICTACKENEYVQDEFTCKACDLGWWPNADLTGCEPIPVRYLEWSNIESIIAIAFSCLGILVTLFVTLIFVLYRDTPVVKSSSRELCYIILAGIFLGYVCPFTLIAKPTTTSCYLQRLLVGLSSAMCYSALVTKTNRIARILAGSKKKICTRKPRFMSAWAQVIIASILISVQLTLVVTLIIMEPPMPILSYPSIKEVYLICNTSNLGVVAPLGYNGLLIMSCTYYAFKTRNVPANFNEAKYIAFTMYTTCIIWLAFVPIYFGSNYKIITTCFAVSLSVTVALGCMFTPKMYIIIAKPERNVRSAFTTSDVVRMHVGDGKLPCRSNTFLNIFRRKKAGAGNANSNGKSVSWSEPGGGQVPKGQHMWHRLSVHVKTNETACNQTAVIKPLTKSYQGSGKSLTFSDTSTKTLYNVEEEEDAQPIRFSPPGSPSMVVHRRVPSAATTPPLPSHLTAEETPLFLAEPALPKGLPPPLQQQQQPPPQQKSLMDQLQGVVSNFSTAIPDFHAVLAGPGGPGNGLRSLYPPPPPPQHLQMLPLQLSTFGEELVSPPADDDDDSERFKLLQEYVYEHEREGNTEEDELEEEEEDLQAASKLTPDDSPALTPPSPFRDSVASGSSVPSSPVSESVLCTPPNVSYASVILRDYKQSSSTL

human mGluR5a receptors, sequence (P41594 other isoform, or with tags, fused parts or gaps): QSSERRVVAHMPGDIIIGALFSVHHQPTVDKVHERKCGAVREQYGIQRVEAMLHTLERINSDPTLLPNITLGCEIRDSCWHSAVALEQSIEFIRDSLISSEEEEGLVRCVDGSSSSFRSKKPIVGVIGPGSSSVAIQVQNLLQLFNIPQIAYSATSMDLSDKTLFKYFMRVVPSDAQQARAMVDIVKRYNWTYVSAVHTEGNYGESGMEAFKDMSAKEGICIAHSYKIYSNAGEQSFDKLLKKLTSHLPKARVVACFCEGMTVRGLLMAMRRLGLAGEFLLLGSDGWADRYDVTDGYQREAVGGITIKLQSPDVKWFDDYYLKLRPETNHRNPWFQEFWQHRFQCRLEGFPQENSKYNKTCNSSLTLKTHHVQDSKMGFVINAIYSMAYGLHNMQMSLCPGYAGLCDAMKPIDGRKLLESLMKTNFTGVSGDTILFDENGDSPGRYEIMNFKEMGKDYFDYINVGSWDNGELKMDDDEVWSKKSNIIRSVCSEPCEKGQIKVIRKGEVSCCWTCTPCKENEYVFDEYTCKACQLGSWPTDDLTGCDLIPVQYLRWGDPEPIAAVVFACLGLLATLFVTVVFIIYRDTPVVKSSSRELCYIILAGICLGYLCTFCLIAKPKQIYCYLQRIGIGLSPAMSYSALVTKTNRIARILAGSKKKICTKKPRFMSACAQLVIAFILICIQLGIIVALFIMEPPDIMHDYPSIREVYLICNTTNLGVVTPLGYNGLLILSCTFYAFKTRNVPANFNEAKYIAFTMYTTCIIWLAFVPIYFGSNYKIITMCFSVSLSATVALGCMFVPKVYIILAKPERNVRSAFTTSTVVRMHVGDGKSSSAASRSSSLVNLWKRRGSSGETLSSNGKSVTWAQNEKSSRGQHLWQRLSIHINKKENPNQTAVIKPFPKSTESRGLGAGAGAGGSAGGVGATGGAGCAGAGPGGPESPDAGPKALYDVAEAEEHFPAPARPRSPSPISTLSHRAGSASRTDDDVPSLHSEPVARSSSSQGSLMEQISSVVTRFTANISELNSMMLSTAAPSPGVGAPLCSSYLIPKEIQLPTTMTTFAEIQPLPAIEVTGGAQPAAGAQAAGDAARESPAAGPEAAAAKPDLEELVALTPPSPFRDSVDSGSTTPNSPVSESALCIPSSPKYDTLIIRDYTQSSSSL

SMILES	IC50 (human mGluR5a receptors) [nM]	IC50 (human mGluR1) [µM]	inhibition at 10 µM (human mGluR1) [%]
COCCc1cn(C2=NCC(=O)N3CCc4c(cccc4-c4cscn4)C3=C2)cn1 [Example 76, 2-(4-(2-methoxyethyl)-1H-imidazol-1-yl)-9-(thiazol-4-yl)-7,8-dihydro-[1,4]diazepino[7,1-a]isoquinolin-5(4H)-one]	34	4.2	
COCc1cn(C2=NCC(=O)N3CCc4c(cccc4-c4ncc(C)s4)C3=C2)cn1 [Example 77]	32		73
Cc1cn(C2=NCC(=O)N3CCc4c(cccc4-c4cncnc4)C3=C2)cn1 [Example 78, 2-(4-methyl-1H-imidazol-1-yl)-9-(pyrimidin-5-yl)-7,8-dihydro-[1,4]diazepino[7,1-a]isoquinolin-5(4H)-one]	540	> 10	
Cc1cn(C2=NCC(=O)N3CCc4c(cccc4-c4cccnc4)C3=C2)cn1 [Example 79, 2-(4-methyl-1H-imidazol-1-yl)-9-(pyridin-3-yl)-7,8-dihydro-[1,4]diazepino[7,1-a]isoquinolin-5(4H)-one]	130	> 10	
Cc1cn(C2=NCC(=O)N3CCc4c(cccc4-c4ccncc4)C3=C2)cn1 [Example 80, 2-(4-methyl-1H-imidazol-1-yl)-9-(pyridin-4-yl)-7,8-dihydro-[1,4]diazepino[7,1-a]isoquinolin-5(4H)-one]	145	> 10	
Cc1cn(C2=NCC(=O)N3CCc4c(cccc4-c4ccc(F)nc4)C3=C2)cn1 [Example 81, 9-(6-fluoropyridin-3-yl)-2-(4-methyl-1H-imidazol-1-yl)-7,8-dihydro-[1,4]diazepino[7,1-a]isoquinolin-5(4H)-one]	36	> 10	
Cc1cn(C2=NCC(=O)N3CCc4c(cccc4-c4cncs4)C3=C2)cn1 [Example 82, 2-(4-methyl-1H-imidazol-1-yl)-9-(thiazol-5-yl)-7,8-dihydro-[1,4]diazepino[7,1-a]isoquinolin-5(4H)-one]	72	> 10	
O=C1CN=C(n2cnc(Cl)c2)C=C2c3cccc(-c4cncc(F)c4)c3CCN12 [Example 83, 2-(4-chloro-1H-imidazol-1-yl)-9-(5-fluoropyridin-3-yl)-7,8-dihydro-[1,4]diazepino[7,1-a]isoquinolin-5(4H)-one]	205	> 10	
COCCc1cn(C2=NCC(=O)N3CCc4c(cccc4-c4ccc(F)nc4)C3=C2)cn1 [Example 84, 9-(6-fluoropyridin-3-yl)-2-(4-(2-methoxyethyl)-1H-imidazol-1-yl)-7,8-dihydro-[1,4]diazepino[7,1-a]isoquinolin-5(4H)-one]	28	> 10	
C=Cc1cccc2c1CCN1C(=O)CN=C(n3cnc(COC)c3)C=C21 [Example 85, 2-(4-(methoxymethyl)-1H-imidazol-1-yl)-9-vinyl-7,8-dihydro-[1,4]diazepino[7,1-a]isoquinolin-5(4H)-one]	39	1.6	
CCc1cn(C2=NCC(=O)N3CCc4c(cccc4-c4ccc(F)cc4)C3=C2)cn1 [Example 86, 2-(4-ethyl-1H-imidazol-1-yl)-9-(4-fluorophenyl)-7,8-dihydro-[1,4]diazepino[7,1-a]isoquinolin-5(4H)-one]	12	5.9	
Cc1coc(-c2cccc3c2CCN2C(=O)CN=C(n4cnc(C5CC5)c4)C=C32)n1 [Example 87, 2-(4-cyclopropyl-1H-imidazol-1-yl)-9-(4-methyloxazol-2-yl)-7,8-dihydro-[1,4]diazepino[7,1-a]isoquinolin-5(4H)-one]	148		56
Cc1cnc(-c2cccc3c2CCN2C(=O)CN=C(n4cnc(C5CC5)c4)C=C32)o1 [Example 88, 2-(4-cyclopropyl-1H-imidazol-1-yl)-9-(5-methyloxazol-2-yl)-7,8-dihydro-[1,4]diazepino[7,1-a]isoquinolin-5(4H)-one]	131		47
